# From patent publication US20230020092 (published 2023)
# {C6NH2} = C6 amino linker (-C6-NH2)
# Assay: fmoc spps; Rink amide resin (1.0 mmol/g); HATU/DIEA (cyclization)
# Conditions: conjugation step, scale 1 mmol, TFA salt
substance,measurement,value
"5'-GCT ATT ACC TTA ACC CAG-3' -C6-NH2 (all PMO monomers) (SEQ ID NO: 222) (GCTATTACCTTAACCCAG; all phosphorodiamidate morpholino (PMO), 3' {C6NH2})",final purity method not stated,>99%
